Results: patent publication US11104677B2, “Toll-like receptor 9 antagonists” (FRAUNHOFER-GESELLSCHAFT ZUR FÖRDERUNG DER ANGEWANDTEN …, priority 2015, dated 2021)

Target: T1, TLR9 (Homo sapiens, UniProt Q9NR96)
T1 construct: expressed in transfected cells; host or cells: NIH 3T3 fibroblasts (mouse), stably transfected, NF-kB driven SEAP reporter
T1 sequence (Q9NR96 26-1032): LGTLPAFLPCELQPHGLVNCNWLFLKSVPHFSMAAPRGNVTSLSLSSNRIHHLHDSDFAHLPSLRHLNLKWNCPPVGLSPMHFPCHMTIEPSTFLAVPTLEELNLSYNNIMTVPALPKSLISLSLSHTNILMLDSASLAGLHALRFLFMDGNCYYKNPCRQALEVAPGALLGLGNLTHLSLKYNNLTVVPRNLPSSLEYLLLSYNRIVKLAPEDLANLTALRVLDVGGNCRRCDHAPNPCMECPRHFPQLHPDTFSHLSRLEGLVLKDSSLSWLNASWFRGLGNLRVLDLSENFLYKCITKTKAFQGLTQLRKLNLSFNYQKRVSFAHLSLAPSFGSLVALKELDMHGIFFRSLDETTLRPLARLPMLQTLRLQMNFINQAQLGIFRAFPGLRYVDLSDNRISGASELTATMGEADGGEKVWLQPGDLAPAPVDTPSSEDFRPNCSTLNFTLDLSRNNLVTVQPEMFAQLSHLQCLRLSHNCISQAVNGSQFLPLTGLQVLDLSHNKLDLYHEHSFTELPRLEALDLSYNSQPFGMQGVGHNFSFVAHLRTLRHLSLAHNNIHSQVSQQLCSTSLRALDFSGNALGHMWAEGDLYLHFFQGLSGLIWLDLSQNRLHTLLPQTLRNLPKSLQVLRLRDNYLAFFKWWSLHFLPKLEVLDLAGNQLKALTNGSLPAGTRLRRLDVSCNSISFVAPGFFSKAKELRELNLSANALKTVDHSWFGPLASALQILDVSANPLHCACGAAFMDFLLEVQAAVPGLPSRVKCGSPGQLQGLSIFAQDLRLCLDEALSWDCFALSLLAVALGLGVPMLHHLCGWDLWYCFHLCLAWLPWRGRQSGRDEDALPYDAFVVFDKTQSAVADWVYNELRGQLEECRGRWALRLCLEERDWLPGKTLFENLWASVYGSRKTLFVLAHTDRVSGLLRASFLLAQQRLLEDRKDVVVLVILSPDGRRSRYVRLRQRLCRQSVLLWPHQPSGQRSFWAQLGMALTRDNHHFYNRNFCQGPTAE
Experiment: cell-based reporter assay (NIH 3T3 reporter cell line expressing TLR9, NF-kB driven SEAP, stimulated with CpG ODN 2216)
Settings: FIG. 3; 5 μM ODN 2216, 0.12 μM-7.8 μM of antagonist
Description: In context with the present invention, the ‘IC50 value’ is the half maximum inhibitory concentration which is a measure of the effectiveness of a substance inhibiting the function of the TLR9. The IC50 value can be determined by a functional antagonist assay or a competition binding assay. Preferably, the IC50 value is determined by the cell-based reporter assay in section 3, below, of the examples.
A cell based test-system that allows PAMPs to be identified and differentiated via pattern recognition receptors (PRRs) in a reporter gene assay was used (DE 10 2006 031 483, EP 2 041 172). For this assay human PRRs and co-receptors were stably transfected and expressed in NIH 3T3 fibroblasts. This cell line expresses no other PRRs and contains a reporter gene which is activated by PRR-activation. The induction of receptor complexes by their ligands leads, after a signalling cascade, to an activation of transcription factor NF-kB, which regulates the expression of an additional integrated reporter gene, a secreted alkaline phosphatase (SEAP) (Burger-Kentischer, A.; Abele, I. S.; Finkelmeier, D.; Wiesmüller, K.-H.; Rupp, S., A new cell-based innate immune receptor assay for the examination of receptor activity, ligand specificity, signalling pathways and the detection of pyrogens. J. Immunol. Methods 2010, 358 (1), 93-103).
This test system mimics elements of the innate human immune system and can selectively recognize a large number of PAMPs with high sensitivity. Consequently, the PRR-specific cell-based high-throughput feature of the reporter cell lines will provide a fast, flexible and convenient means for lead compound screening in the pharmaceutical drug development fields. For the in vitro screening of the top candidates identified at IDR, the Fraunhofer IGB used this cell-based reporter system to identify TLR9 antagonists in order to determine their activity as well their biocompatibility. Within a first step the NIH3T3 cell line expressing TLR9 was used to measure the inhibitory effect of the TLR9 antagonists.
For the experiment the reporter cell line expressing TL9 was plated in 96-well cell culture plates at a density of 0.3×10^5 cells in DMEM media supplemented with 10% FCS (Invitrogen), 1% L-glutamine (200 mM Invitrogen) and 1% Penicillin-Streptomycin (PenStrep: 100×, Invitrogen). The cells were incubated for 16 h to grow adherent monolayers at 37° C. in a 5% saturated CO2 humidified atmosphere. After overnight incubation, the media was removed and replaced by DMEM medium supplemented with 1% PenStrep, 1% L-glutamine and 0.5% FCS. The media change is important to avoid a unspecific background signal, caused by active remaining phosphatases present in the FCS. The cells are then stimulated with a specific ligand non-methylated CpG ODN 2216 agonist (Invivogen) and the potential antagonists using different concentrations, namely within a range of concentrations of the potential antagonists starting with 0.025 μM (for the antagonist with the highest activity) up to 14 mM for the antagonists with lowest activities.
The ODN ligand has the sequence 5′-ggGGGACGA:TCGTCgggggg-3′ (SEQ ID No. 1). Those represented by capital letters are phosphodiesters, and those in small letters are phosphorothioate. The Palindrome is underlined.
The cells were again incubated in a humidified atmosphere for 16h leading to the expression or reduced expression of SEAP and its secretion into the media. Binding of the antagonist leads to a block of the TLR9, resulting in no or in a reduced expression of the reporter gene (SEAP). Therefore, 50 μl supernatant were taken from the cells and transferred into a 96-well PS microplate flat bottom (Greiner BIO-ONE). The enzyme substrate reaction was initiated by adding 50 μl of the specific substrate. SEAP catalyses the hydrolysis of pNPP to the final product para-nitrophenol (yellow), which can be detected in a photometric analysis using an UV-VIS reader at 405 nm. […]

ODN2216 signal | SMILES
dose dependent reduction of the signal | c1ccc(-n2cc(CNCCCN3CCOCC3)c(-c3cc4ccccc4o3)n2)cc1 [T5570245]

Same assay, conditions: FIG. 3; 5 μM ODN 2216, 0.12 μM-7.8 μM of antagonist; read-out: IC50 value

IC50 [µM] | SMILES
0.8 | c1ccc(-n2cc(CNCCCN3CCOCC3)c(-c3cc4ccccc4o3)n2)cc1 [T5570245]

Same assay, conditions: Table 5; first 30 candidates; ODN 2216 agonist; n≥3

SMILES | IC50 in [μM]
Cc1ccc(N2CCN(/N=C/C=C/c3ccccc3)CC2)cc1 [T0505-2171, N(/N1CCN(CC1)c1ccc(cc1)C)═C\C═C\c1ccccc1] | agonist
c1ccc(-c2cc(-c3cccnc3)nc3ccccc23)cc1 [T5762626, n1c2c(cccc2)c(cc1-c1cccnc1)-c1ccccc1] | agonist

Same assay, conditions: Table 5; first 30 candidates; ODN 2216 agonist; n≥3; read-out: IC50 in

SMILES | IC50 [µM]
COc1ccc(CCNc2ncnc3c2oc2ccccc23)cc1OC [T5666774, o1c2c(ncnc2NCCc2cc(OC)c(OC)cc2)c2c1cccc2] | 30.3
COc1ccc(OCCN(C)c2ncnc3c2oc2ccccc23)cc1 [T6593995, o1c2c(ncnc2N(CCOc2ccc(OC)cc2)C)c2c1cccc2] | 905
CCOc1ccccc1OCCOc1cccc2cccnc12 [T0513-2251, O(CCOc1c2ncccc2ccc1)c1ccccc1OCC] | 1080
Cc1cc(-c2ccc(-n3ccnc3)cc2)nc2ccccc12 [T5803292, n1c2c(cccc2)c(cc1-c1ccc(-n2ccnc2)cc1)C] | 4270
COc1ccc(OCCOc2cccc3cccnc23)cc1 [T5771955, O(CCOc1ccc(OC)cc1)c1c2ncccc2ccc1] | 650
COCCNc1ncnc2c1c(-c1ccccc1)cn2-c1ccc(OC)cc1 [T6015017, O(C)c1ccc(-n2cc(c3c2ncnc3NCCOC)-c2ccccc2)cc1] | 2030
COc1ccc(/C=N/c2ccc3nc(C)ccc3c2)cc1 [T0501-1111, O(C)c1ccc(cc1)\C═N\c1cc2c(nc(cc2)C)cc1] | 488
COc1ccc2nc3c(nc2c1)-c1cccc2cccc-3c12 [T0504-1221, O(C)c1cc2nc3-c4c5c(-c3nc2cc1)cccc5ccc4] | 65.6
c1ccc(-c2cn3c(n2)CCc2ccc4cccnc4c2-3)cc1 [T0502-6934, n1c2n(cc1-c1ccccc1)-c1c(CC2)ccc2c1nccc2] | 13200
COc1ccccc1N1CCN(c2ccc3ccccc3n2)CC1 [T5547436, O(C)c1ccccc1N1CCN(CC1)c1nc2c(cc1)cccc2] | 1160
C(=C\c1ccc2ccccc2n1)/c1ccc(-n2ccnc2)cc1 [T5500062, n1c2c(ccc1\C═C\c1ccc(-n3ccnc3)cc1)cccc2] | 777
c1ccc(OCCn2c(-c3ccco3)nc3ccccc32)cc1 [T5456813, o1cccc1-c1nc2c(n1CCOc1ccccc1)cccc2] | 73.2
CN(C)c1ccc(/C=C/c2ccc3ccccc3n2)cc1 [T0506-4124, n1c2c(ccc1\C═C\c1ccc(N(C)C)cc1)cccc2] | 312
COc1ccc2c(-c3ccccc3)cc(N3CCOCC3)nc2c1 [T0513-5752, O1CCN(CC1)c1nc2c(ccc(OC)c2)c(c1)-c1ccccc1] | 7.77
COc1cc(/C=C/c2ccc3ccccc3n2)cc(OC)c1 [T5702130, O(C)c1cc(cc(OC)c1)\C═C\c1nc2c(cc1)cccc2] | 7.27
COc1cccc(OCCCCn2cnc3ccccc32)c1 [T6416309, O(CCCCn1c2c(nc1)cccc2)c1cc(OC)ccc1] | 13.3
COc1ccc(-n2c(-c3ccncc3)nc3ccccc32)cc1 [T5771455, O(C)c1ccc(-n2c3c(nc2-c2ccncc2)cccc3)cc1] | 11.9
c1ccc2c(NCCNc3ncnc4ccccc34)cccc2c1 [T5807811, n1cnc2c(cccc2)c1NCCNc1c2c(ccc1)cccc2] | 57
c1ccc(N2CCN(c3ccc4ccccc4n3)CC2)cc1 [T6495030, n1c2c(ccc1N1CCN(CC1)c1ccccc1)cccc2] | 220
COc1ccc(/N=C/c2ccc3ncccc3c2)cc1 [T0501-0693, O(C)c1ccc(\N═C\c2cc3c(nccc3)cc2)cc1] | 15.7
COc1ccc(/C=C/c2ccc3ccccc3n2)c(OC)c1 [T5713724, O(C)c1cc(OC)ccc1\C═C\c1nc2c(cc1)cccc2] | 15.9
c1ccc(-c2nc3ccccc3nc2-c2ccccc2)cc1 [T0504-1257, n1c2c(nc(c1-c1ccccc1)-c1ccccc1)cccc2] | 1990
COc1ccc(CCN(C)c2ncnc3c2oc2ccccc23)cc1OC [T0519-4581, o1c2c(ncnc2N(CCc2cc(OC)c(OC)cc2)C)c2c1cccc2] | 15.1

Same assay, conditions: in the presence of 5 μM of the ODN 2216 agonist; read-out: IC50 in

SMILES | IC50 [µM]
COc1cc(CN2CCN(CCN3CCCC3)CC2)ccc1OCc1ccc(Cl)cc1 [T5428933] | 0.962
c1ccc(CN2CCN(c3ccnc(N4CCN(Cc5ccccc5)CC4)n3)CC2)cc1 [T5453081] | 1.6
COc1cc(CNC2CCN(Cc3ccccc3)CC2)ccc1OCc1c(C)noc1C [T5364934] | 1.62

Next, values leading:

IC50 [µM] | SMILES
1.87 | CCCN1CCC(NCc2cn(-c3ccccc3)nc2-c2ccc3c(c2)OCCO3)CC1 [T5587050]
1.44 | CCN1CCC(NCc2cn(-c3ccccc3)nc2-c2ccc3c(c2)OCCO3)CC1 [T5581955]
0.815 | c1ccc(-n2cc(CNCCCN3CCOCC3)c(-c3cc4ccccc4o3)n2)cc1 [T5570245]
7.56 | c1ccc(Cn2cc(CNCc3ccc(CN4CCOCC4)cc3)c(-c3cccnc3)n2)cc1 [T6216617]
7.51 | COc1ccc(-c2nn(-c3ccccc3)cc2CNCc2ccccc2CN2CCOCC2)cc1OC [T6083277]
0.0536 | COc1cc2nc(-c3ccccc3)nc(N3CCN(CCN4CCCC4)CC3)c2cc1OC [T5669070]
6.32 | COc1ccc(CN2CCN(Cc3c(-c4ccccc4)nc4ccccn34)CC2)cc1OC [T5635793]
0.201 | CN(C)CCCNCc1cn(-c2ccccc2)nc1-c1ccc2c(c1)OCCO2 [T5581953]
1.78 | CCN1CCC(NCc2ccc(-n3cnc4ccccc43)cc2)CC1 [T5820428]
6.43 | CC(C)(c1ccccc1)c1ccc(OCCCNCCN2CCOCC2)cc1 [T5793071]
0.896 | Clc1ccc(CN2CCC(NCc3ccc(-n4ccnc4)cc3)CC2)cc1 [T6683896]
3.82 | Clc1ccc(-c2nn(Cc3ccccc3)cc2CN2CCN(CCN3CCCC3)CC2)cc1 [T5535483]
3.14 | COc1ccc(-c2nn(-c3ccccc3)cc2CNCc2ccccc2CN2CCOCC2)cc1 [T5571341]
